Source: ChEMBL document CHEMBL1130536 (Bioorg Med Chem Lett, 1997)

What was measured:
Mus musculus [1] = organism: Mus musculus; experiment: The compound was tested for Mean effective dose which protects the mice against seizures induced by Maximum electroshock (MES); assay type: functional
Glutamate NMDA receptor = experiment: Binding affinity against glycine binding site of NMDA receptor using [3H]glycine; assay type: protein-complex assay, Rattus norvegicus
Mus musculus [2] = experiment: Mean effective dose that protects 50% of the mice against AMPA-induced lethality when it administered ip, 60 minutes prior to application of AMPA icv; assay type: functional
[3] = target: Glutamate receptor ionotropic AMPA (Homo sapiens, UniProt P42261+P42262+P42263+P48058)
Description: In vitro binding affinity against AMPA receptor by [3H]AMPA displacement.

Mus musculus [4] = organism: Mus musculus; experiment: Percent protection of the mice against seizures induced by Maximum electroshock, by the compound was determined; assay type: functional
Mus musculus [5] = organism: Mus musculus; experiment: The compound was tested for Mean effective dose which protects the mice against seizures induced by Maximum electroshock; assay type: functional

| SMILES | ED50 (Mus musculus [1]) | Ki (Glutamate NMDA receptor) | ED50 (Mus musculus [2]) | Ki [3] | Protection (Mus musculus [4]) | ED50 (Mus musculus [5]) |
| --- | --- | --- | --- | --- | --- | --- |
| O=C(O)Cn1c(=O)c(=O)[nH]c2cc([N+](=O)[O-])c(-n3ccc(C(=O)O)c3)cc21 | 2.4 mg/kg | > 30000 nM | 1.4 mg/kg |  |  |  |
| CCOC(=O)Cn1c(=O)c(=O)[nH]c2cc([N+](=O)[O-])c(-n3ccc(C(=O)O)c3)cc21 |  |  |  | 215 nM |  |  |
| O=C(O)Cn1c(=O)c(=O)[nH]c2cc(C(F)(F)F)c(-n3ccc(CNC(=O)Nc4ccc(C(=O)O)cc4)c3)cc21 | 1.4 mg/kg | > 30000 nM | 0.27 mg/kg | 7 nM |  |  |
| O=C(O)Cn1c(=O)c(=O)[nH]c2cc(C(F)(F)F)c(-n3ccc(CNC(=O)Nc4cccc(C(=O)O)c4)c3)cc21 | 13.5 mg/kg | > 30000 nM | 3.5 mg/kg | 20 nM |  |  |
| CCOC(=O)c1ccc(NC(=O)NCc2ccn(-c3cc4nc(O)c(O)nc4cc3C(F)(F)F)c2)cc1 |  |  |  | 450 nM |  |  |
| CCOC(=O)Cn1c(=O)c(=O)[nH]c2cc(C(F)(F)F)c(-n3ccc(C(=O)O)c3)cc21 |  | > 30000 nM |  | 1500 nM |  |  |
| O=C(O)Cn1c(=O)c(=O)[nH]c2cc(C(F)(F)F)c(-n3ccc(C(=O)O)c3)cc21 | 2.4 mg/kg | > 30000 nM | 2.3 mg/kg | 66 nM |  |  |
| O=C(NCc1ccn(-c2cc3nc(O)c(O)nc3cc2C(F)(F)F)c1)Nc1ccc(C(=O)O)cc1 |  | > 30000 nM | ~11 mg/kg | 54 nM | 0% | 46 mg/kg |
| O=C(O)c1ccn(-c2cc3nc(O)c(O)nc3cc2[N+](=O)[O-])c1 |  | > 30000 nM | 17 mg/kg | 60 nM |  |  |
| CCOC(=O)c1cccc(NC(=O)NCc2ccn(-c3cc4c(cc3C(F)(F)F)[nH]c(=O)c(=O)n4CC(=O)O)c2)c1 | 28.5 mg/kg | > 30000 nM | 2.9 mg/kg | 4 nM |  |  |
| CCOC(=O)c1ccc(NC(=O)NCc2ccn(-c3cc4c(cc3C(F)(F)F)[nH]c(=O)c(=O)n4CC(=O)O)c2)cc1 |  | > 30000 nM | 0.8 mg/kg | 4 nM |  |  |
| NS(=O)(=O)c1cccc2c1c([N+](=O)[O-])cc1nc(O)c(O)nc12 [NBQX] |  | 33000 nM |  |  | 31% | 46 mg/kg |
| O=c1[nH]c2cc(-n3ccnc3)c([N+](=O)[O-])cc2[nH]c1=O [YM-90K] |  | 7400 nM | 13 mg/kg |  |  |  |
